Test results taken from ChEMBL document CHEMBL3885881, “DrugMatrix”.

Species: Rattus norvegicus
Experiment: DrugMatrix - Regimen: Daily Repeat
Format: toxicity, organism-based, Sprague-Dawley
Design: regimen Daily Repeat, gender Male, age 6-8 weeks
Conditions: in vivo, po, route oral GAVAGE, vehicle .5 % CMC; for ABSOLUTE BASOPHIL / ABSOLUTE EOSINOPHIL / ABSOLUTE LYMPHOCYTE / ABSOLUTE MONOCYTE / ABSOLUTE SEGMENTED NEUTROPHIL / BASOPHIL / EOSINOPHIL / ERYTHROCYTE COUNT / HEMATOCRIT / HEMOGLOBIN / LEUKOCYTE COUNT / LYMPHOCYTE / MEAN CORPUSCULAR HEMOGLOBIN / MEAN CORPUSCULAR HEMOGLOBIN CONCENTRATION / MEAN CORPUSCULAR VOLUME / MONOCYTE / NEUTROPHIL / NUCLEATED RED BLOOD CELLS / PLATELET COUNT: tissue Blood; for ALANINE AMINOTRANSFERASE / ALBUMIN / ALKALINE PHOSPHATASE / ASPARTATE AMINOTRANSFERASE / BLOOD UREA NITROGEN / CARBON DIOXIDE / CHLORIDE / CHOLESTEROL / CREATINE PHOSPHOKINASE / CREATININE / GLUCOSE / LACTATE DEHYDROGENASE / LIPASE / PHOSPHORUS / POTASSIUM / SODIUM / TOTAL BILIRUBIN / TOTAL PROTEIN / URIC ACID: tissue Plasma
[1] = 0 mg/kg, 72 h, dose level Control, time 3 day
[2] = 0 mg/kg, 120 h, dose level Control, time 5 day
[3] = 2500 mg/kg, 72 h, dose level High, time 3 day

`CN1CCC[C@@H]1CCO[C@](C)(c1ccccc1)c1ccc(Cl)cc1` [CLEMASTINE] was tested, and the “ABSOLUTE BASOPHIL” value [1] was 0 CELLS/uL, the “ABSOLUTE EOSINOPHIL” value [1] was 0 CELLS/uL and the “ABSOLUTE LYMPHOCYTE” value [1] was 12191.17 CELLS/uL. For the same compound, the “ABSOLUTE MONOCYTE” value [1] was 183.17 CELLS/uL, the “ABSOLUTE SEGMENTED NEUTROPHIL” value [1] was 1192.33 CELLS/uL and the BASOPHIL [1] was 0%. For the same compound, the EOSINOPHIL [1] was 0%, the “ERYTHROCYTE COUNT” value [1] was 5.51 x10E6/uL and the HEMATOCRIT [1] was 35.45%. The HEMOGLOBIN [1] was 13.82 G/DL, the “LEUKOCYTE COUNT” value [1] was 13.57 x10E3/uL and the LYMPHOCYTE [1] was 89.83%. The “MEAN CORPUSCULAR HEMOGLOBIN” value [1] was 25.1 pg, the “MEAN CORPUSCULAR HEMOGLOBIN CONCENTRATION” value [1] was 38.98 G/DL and the “MEAN CORPUSCULAR VOLUME” value [1] was 64.42 fL. For the same compound, the MONOCYTE [1] was 1.33%, the NEUTROPHIL [1] was 8.83% and the “NUCLEATED RED BLOOD CELLS” value [1] was 0 /100WBC. For the same compound, the “PLATELET COUNT” value [1] was 1118.17 x10E3/uL, the “ALANINE AMINOTRANSFERASE” value [1] was 55 u/L and the ALBUMIN [1] was 4.15 G/DL. For the same compound, the “ALKALINE PHOSPHATASE” value [1] was 449.5 u/L, the “ASPARTATE AMINOTRANSFERASE” value [1] was 112.83 u/L and the “BLOOD UREA NITROGEN” value [1] was 17.33 mg/dL. The “CARBON DIOXIDE” value [1] was 29.5 mmol/L, the CHLORIDE [1] was 101 MEQ/L and the CHOLESTEROL [1] was 70 mg/dL. For the same compound, the “CREATINE PHOSPHOKINASE” value [1] was 1325.83 u/L, the CREATININE [1] was 0.18 mg/dL and the GLUCOSE [1] was 171.5 mg/dL. The “LACTATE DEHYDROGENASE” value [1] was 386 u/L, the LIPASE [1] was 10 u/L and the PHOSPHORUS [1] was 11.57 mg/dL. For the same compound, the POTASSIUM [1] was 6.21 MEQ/L, the SODIUM [1] was 141.65 MEQ/L and the “TOTAL BILIRUBIN” value [1] was 0.15 mg/dL. For the same compound, the “TOTAL PROTEIN” value [1] was 5.75 G/DL, the “URIC ACID” value [1] was 1.28 mg/dL and the “ABSOLUTE BASOPHIL” value [2] was 0 CELLS/uL. The “ABSOLUTE EOSINOPHIL” value [2] was 138.17 CELLS/uL, the “ABSOLUTE LYMPHOCYTE” value [2] was 13283.17 CELLS/uL and the “ABSOLUTE MONOCYTE” value [2] was 303.83 CELLS/uL. For the same compound, the “ABSOLUTE SEGMENTED NEUTROPHIL” value [2] was 1308.17 CELLS/uL, the BASOPHIL [2] was 0% and the EOSINOPHIL [2] was 1%. The “ERYTHROCYTE COUNT” value [2] was 5.32 x10E6/uL, the HEMATOCRIT [2] was 33.8% and the HEMOGLOBIN [2] was 13.63 G/DL. For the same compound, the “LEUKOCYTE COUNT” value [2] was 15.03 x10E3/uL, the LYMPHOCYTE [2] was 88.33% and the “MEAN CORPUSCULAR HEMOGLOBIN” value [2] was 25.68 pg. For the same compound, the “MEAN CORPUSCULAR HEMOGLOBIN CONCENTRATION” value [2] was 40.35 G/DL, the “MEAN CORPUSCULAR VOLUME” value [2] was 63.67 fL and the MONOCYTE [2] was 1.83%. For the same compound, the NEUTROPHIL [2] was 8.83%, the “NUCLEATED RED BLOOD CELLS” value [2] was 0 /100WBC and the “PLATELET COUNT” value [2] was 1097.5 x10E3/uL. For the same compound, the “ALANINE AMINOTRANSFERASE” value [2] was 54.5 u/L, the ALBUMIN [2] was 4.27 G/DL and the “ALKALINE PHOSPHATASE” value [2] was 337 u/L. The “ASPARTATE AMINOTRANSFERASE” value [2] was 94.67 u/L, the “BLOOD UREA NITROGEN” value [2] was 17 mg/dL and the “CARBON DIOXIDE” value [2] was 28.33 mmol/L. The CHLORIDE [2] was 101.5 MEQ/L, the CHOLESTEROL [2] was 71.33 mg/dL and the “CREATINE PHOSPHOKINASE” value [2] was 628.17 u/L. For the same compound, the CREATININE [2] was 0.19 mg/dL, the GLUCOSE [2] was 177.83 mg/dL and the “LACTATE DEHYDROGENASE” value [2] was 500.5 u/L. For the same compound, the LIPASE [2] was 9.5 u/L, the PHOSPHORUS [2] was 12.3 mg/dL and the POTASSIUM [2] was 5.63 MEQ/L. The SODIUM [2] was 143.03 MEQ/L, the “TOTAL BILIRUBIN” value [2] was 0.2 mg/dL and the “TOTAL PROTEIN” value [2] was 6.02 G/DL. The “URIC ACID” value [2] was 1.5 mg/dL, the “ABSOLUTE BASOPHIL” value [3] was 0 CELLS/uL and the “ABSOLUTE EOSINOPHIL” value [3] was 0 CELLS/uL. For the same compound, the “ABSOLUTE LYMPHOCYTE” value [3] was 7950 CELLS/uL, the “ABSOLUTE MONOCYTE” value [3] was 225 CELLS/uL and the “ABSOLUTE SEGMENTED NEUTROPHIL” value [3] was 1825 CELLS/uL. For the same compound, the BASOPHIL [3] was 0%, the EOSINOPHIL [3] was 0% and the “ERYTHROCYTE COUNT” value [3] was 6.97 x10E6/uL. For the same compound, the HEMATOCRIT [3] was 42.9%, the HEMOGLOBIN [3] was 16.67 G/DL and the “LEUKOCYTE COUNT” value [3] was 10 x10E3/uL. The LYMPHOCYTE [3] was 77%, the “MEAN CORPUSCULAR HEMOGLOBIN” value [3] was 23.97 pg and the “MEAN CORPUSCULAR HEMOGLOBIN CONCENTRATION” value [3] was 38.87 G/DL. The “MEAN CORPUSCULAR VOLUME” value [3] was 61.6 fL, the MONOCYTE [3] was 2.33% and the NEUTROPHIL [3] was 20.67%. For the same compound, the “NUCLEATED RED BLOOD CELLS” value [3] was 0 /100WBC, the “PLATELET COUNT” value [3] was 1501 x10E3/uL and the “ALANINE AMINOTRANSFERASE” value [3] was 133 u/L. The ALBUMIN [3] was 4.1 G/DL, the “ALKALINE PHOSPHATASE” value [3] was 344 u/L and the “ASPARTATE AMINOTRANSFERASE” value [3] was 444 u/L. For the same compound, the “BLOOD UREA NITROGEN” value [3] was 70.67 mg/dL, the “CARBON DIOXIDE” value [3] was 23 mmol/L and the CHLORIDE [3] was 102.5 MEQ/L. The CHOLESTEROL [3] was 44.33 mg/dL, the “CREATINE PHOSPHOKINASE” value [3] was 1897.33 u/L and the CREATININE [3] was 0.69 mg/dL. The GLUCOSE [3] was 201 mg/dL, the “LACTATE DEHYDROGENASE” value [3] was 1757 u/L and the LIPASE [3] was 14.33 u/L. For the same compound, the PHOSPHORUS [3] was 18 mg/dL, the POTASSIUM [3] was 6.26 MEQ/L and the SODIUM [3] was 145.75 MEQ/L. For the same compound, the “TOTAL BILIRUBIN” value [3] was 0.73 mg/dL, the “TOTAL PROTEIN” value [3] was 5.93 G/DL and the “URIC ACID” value [3] was 2.83 mg/dL.
